This is an account of results in patent US8946162B2, “Treatment of tumors” (priority 2008, dated 2015).

The test system of data set [1] is Ang II. The conditions noted are these: reaction conditions identical; material expressed in insect cells; cited from earlier work.
The subject of data set [2] is Ang II. The data set is described as follows: Determination of specific ACE2 activity (conversion of Ang II to Ang 1-7, RP-HPLC). It is filed as biochemical. On the procedure: Furthermore, both Ang II and Ang 1-7 peaks were recognised and integrated in the chromatograms. The peptide concentrations were determined using calibration curves. Enzymatic conversion and specific enzyme activity were also determined.

Data set [3] is described as follows: Terminal half-life measured in various species. It is filed as in vivo. Conditions: including rhesus monkeys. An excerpt: ACE2 is metabolised slowly due to the large, highly branched and complex sugar moiety.
For a further data set, the system named is human tumour cell line. Kind of data set: Suppression of tumour cell growth (cell count in haemocytometer). It is filed as cell-based. Conditions: up to day 17; for cell growth (cell count): culture medium RPMI 1640 10% FCS supplemented with the substance alone (100 nM peptide or 20 μg/ml sACE2), versus control medium. On the procedure: A human tumour cell line was sowed at a density of 2.5×10^4 cells/ml in 200 μl RPMI 1640 in 10% FCS in 96-well plates and incubated at 37° C. and 5% CO2. The influence of various active components of the RAS were evaluated using the following test systems. All the analyses were carried out as triple determinations (sACE2=soluble ACE2 without C-terminal membrane domain): • Condition A. Culture medium RPMI 1640 with 10% FCS as control • Condition B. Culture medium supplemented with 100 nM Ang II • Condition C. Culture medium supplemented with 100 nM Ang 1-7 • Condition D. Culture medium supplemented with 20 μg/ml sACE2 • Condition E. Culture medium supplemented with 20 μg/ml sACE2 and […]
Every day 100 μl of medium was removed and replaced by the same volume of fresh specific medium. The cell count was determined on days 2, 3, 6, 8, 10, 13, 15 and 17 by multiple counting in a haemocytometer. A separately prepared test plate was used for each determination.

Data set [4] in a line: Aggregation of the ACE2 preparation in physiological buffer. Format: physicochemical. The conditions noted are these: concentrated protein solution in physiological buffer. The text has this: The dimer-ACE2 preparation produced according to Example 1 is present as a stable, highly pure and concentrated protein solution in physiological buffer and can be stored and administered […].
The ACE2 preparation also has full enzyme activity.

The mark [5] stands for this setting: 250 ng/ml ACE2, 80 μM Ang II, pH 6.5, 18 minutes at 37° C.

Consider “ACE2 (Vickers et al.): ACE2 of Vickers et al., expressed in insect cells, same amino acid sequence, glycosylated to a considerably lesser extent”, for which, in the data set on Ang II [1], the “catalytic ACE2 activity published by Vickers et al.” value is 3.5 s⁻¹.
On to “ACE2 preparation produced according to Example 1: Soluble section of human ACE2 expressed in CHO, fully N-glycosylated, obtained as a dimer with two Zn2+”, for which, in the data set with Ang II [2] (setting [5]), the “catalytic activity kkat based on Ang II conversion” value amounted to 8.0 ± 0.3 s⁻¹ and the “catalytic activity kkat in relation to Ang 1-7 conversion” value stood at 8.8 ± 0.2 s⁻¹. In addition, in the data set with Ang II [2] (present preparation versus Vickers material), the “higher activity than the figures of Vickers et al.” value is reported as 240%. In data set [3], the terminal half-life result is listed as “at least 10.5 hours”. The “cell growth (cell count)” value with human tumour cell line is “marginally increased growth”. In addition, the “cell growth (cell count) in the presence of Ang II” value in the data set with human tumour cell line (culture medium supplemented with 20 μg/ml sACE2 and […]) is on record as “reduced cell growth”. The aggregation to multimers result in data set [4] is given as “does not exhibit any aggregation to multimers”.
With “Ang 1-7: Effector peptide of the RAS, antagonist of Ang II, formed from Ang II by ACE2 (DRVYIHP; Angiotensin 1-7; UniProt P01019 25-31, looked up) [reference compound]”, the “cell growth (cell count)” value in the data set with human tumour cell line is on record as “reduced cell growth”.
Same read-out and setting: in the case of “Asp-Arg-Val-Tyr-Ile-His-Pro-Phe (DRVYIHPF; printed: Asp-Arg-Val-Tyr-Ile-His-Pro-Phe) [Ang II, reference compound]” it was “distinctly increased cell growth”.
